Assay results taken from PubChem BioAssay (NCI).
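96-well plates; 48 h exposure; 5 concentrations. Endpoints by linear interpolation between flanking doses. Not reached: highest tested concentration assigned. The concentration for full growth arrest is given as TGI.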

System: MDA-N
Assay: inhibition of tumour cell growth, NCI panel, 48 h

Row | SMILES | TGI [µM]
1 | O=C(Nc1ccccc1)OCCN=C1c2ccccc2CCc2ccccc21 | 37.2
2 | COc1cc2cc(C(=O)N3CC(CCl)c4ccc([N+](C)(C)Cc5ccccc5[N+](=O)[O-])cc43)[nH]c2c(OC)c1OC (centres undefined) | 6.49
3 | CC(C)[C@H]1NC(=O)[C@H]2N=C(S[C@H]2C)[C@@H]2CCCN2C(=O)[C@H](Cc2ccccc2)NC(=O)[C@@H]2CSC(=N2)[C@@H](Cc2ccccc2)NC(=O)[C@@H]2CSC1=N2 | > 50
4 | O=C1Oc2ccccc2C(=O)/C1=C/N1C(=O)CNC1=S | > 100
5 | CC1=NN(c2nc(N)nc(/C(C#N)=C\c3ccc(-c4ccc([N+](=O)[O-])cc4)o3)n2)C(C)(C)C1 | > 100
6 | COc1ccc2nc3ccc(OC)cc3c(SCCCl)c2c1 | > 100
7 | CC(Oc1ccccc1Cl)C(=O)NN1C(=O)CC(=O)N(c2ccc(Cl)cc2)C1=S (centres undefined) | > 100
8 | CC(C)[Si]1(C(C)C)OCC2OC(n3ccc(=O)[nH]c3=O)C([Se]c3ccccc3)C2O[Si](C(C)C)(C(C)C)O1 (centres undefined) | 12.7
9 | O=C1NCN(c2ccccc2)C12CCN(CC1COc3ccccc3O1)CC2 (centres undefined) | > 100
10 | O=C1OC([C@H](O)c2cccnc2)c2ccccc21 (some centres undefined) | > 10
11 | CC(C)(C)OC(=O)N1CCCC1C(=O)NC(c1ccccc1)c1ccccc1 (centres undefined) | > 100
12 | O=C1Cc2cn[nH]c2-c2ccccc2N1 | > 100
13 | O=CNc1ccccc1OCCOc1ccccc1NC=O | > 100
14 | C=CCN1CCC(c2cc(C(=O)OCC)[nH]c2-c2cc(C)no2)C1=O (centres undefined) | > 100
15 | O=c1[nH][nH]c(=O)c2c1ccc1oc3ccccc3c12 | > 100
16 | O=C1CSC(c2ccccc2O)N1c1ccc(-n2c(-c3ccccc3)nc3ccccc3c2=O)cc1 (centres undefined) | > 100
17 | Cc1ccc(C(=O)Oc2ccccc2)cc1N=NN(C)C | > 100
18 | O=C1NC2(CCNCC2)Oc2ccccc21 | > 100
19 | Cc1c(/C=N/NC(=S)N2CCCCC2)c(=O)n(-c2ccccc2)n1C | > 100
20 | CC(C)(C)OC(=O)CCCCCNC(=O)CCCCCNC(=O)CCC(CN(CC(=O)OCc1ccccc1)CC(=O)OCc1ccccc1)N(CC(=O)OCc1ccccc1)CC(=O)OCc1ccccc1 (centres undefined) | > 100
21 | O=[N+]([O-])/C(Cl)=C(/C(Cl)=C(Cl)Cl)N1CCOCC1 | 6.77
22 | CN=c1sc2nc(C#N)c(C#N)nc2n1C | > 58.3
23 | CC(C)OP(=O)(OC(C)C)C(C)(C)O | > 100
24 | COC(=O)C(=O)Nc1cc2c3c(c1)Oc1cccc4c1C3(C)c1c(cccc1O2)O4 | > 100

System: U251 CNS
Assay: inhibition of tumour cell growth, NCI panel, 48 h

Row | SMILES | TGI [µM]
25 | O=C(Nc1ccccc1)OCCN=C1c2ccccc2CCc2ccccc21 | 32.1
26 | COc1cc2cc(C(=O)N3CC(CCl)c4ccc([N+](C)(C)Cc5ccccc5[N+](=O)[O-])cc43)[nH]c2c(OC)c1OC (centres undefined) | 26.4
27 | CC(C)[C@H]1NC(=O)[C@H]2N=C(S[C@H]2C)[C@@H]2CCCN2C(=O)[C@H](Cc2ccccc2)NC(=O)[C@@H]2CSC(=N2)[C@@H](Cc2ccccc2)NC(=O)[C@@H]2CSC1=N2 | > 50
28 | O=C1Oc2ccccc2C(=O)/C1=C/N1C(=O)CNC1=S | > 100
29 | CC1=NN(c2nc(N)nc(/C(C#N)=C\c3ccc(-c4ccc([N+](=O)[O-])cc4)o3)n2)C(C)(C)C1 | > 100
30 | COc1ccc2nc3ccc(OC)cc3c(SCCCl)c2c1 | > 100
31 | CC(Oc1ccccc1Cl)C(=O)NN1C(=O)CC(=O)N(c2ccc(Cl)cc2)C1=S (centres undefined) | > 100
32 | CC(C)[Si]1(C(C)C)OCC2OC(n3ccc(=O)[nH]c3=O)C([Se]c3ccccc3)C2O[Si](C(C)C)(C(C)C)O1 (centres undefined) | 4.87
33 | O=C1NCN(c2ccccc2)C12CCN(CC1COc3ccccc3O1)CC2 (centres undefined) | 79.6
34 | O=C1OC([C@H](O)c2cccnc2)c2ccccc21 (some centres undefined) | > 10
35 | CC(C)(C)OC(=O)N1CCCC1C(=O)NC(c1ccccc1)c1ccccc1 (centres undefined) | > 100
36 | O=C1Cc2cn[nH]c2-c2ccccc2N1 | > 61.6
37 | O=CNc1ccccc1OCCOc1ccccc1NC=O | > 100
38 | C=CCN1CCC(c2cc(C(=O)OCC)[nH]c2-c2cc(C)no2)C1=O (centres undefined) | > 100
39 | O=c1[nH][nH]c(=O)c2c1ccc1oc3ccccc3c12 | > 100
40 | O=C1CSC(c2ccccc2O)N1c1ccc(-n2c(-c3ccccc3)nc3ccccc3c2=O)cc1 (centres undefined) | > 100
41 | Cc1ccc(C(=O)Oc2ccccc2)cc1N=NN(C)C | > 100
42 | O=C1NC2(CCNCC2)Oc2ccccc21 | > 100
43 | Cc1c(/C=N/NC(=S)N2CCCCC2)c(=O)n(-c2ccccc2)n1C | > 100
44 | CC(C)(C)OC(=O)CCCCCNC(=O)CCCCCNC(=O)CCC(CN(CC(=O)OCc1ccccc1)CC(=O)OCc1ccccc1)N(CC(=O)OCc1ccccc1)CC(=O)OCc1ccccc1 (centres undefined) | > 100
45 | O=[N+]([O-])/C(Cl)=C(/C(Cl)=C(Cl)Cl)N1CCOCC1 | 27
46 | CN=c1sc2nc(C#N)c(C#N)nc2n1C | 44.9
47 | CC(C)OP(=O)(OC(C)C)C(C)(C)O | > 100
48 | COC(=O)C(=O)Nc1cc2c3c(c1)Oc1cccc4c1C3(C)c1c(cccc1O2)O4 | > 100

System: HL-60(TB) leukemia
Assay: inhibition of tumour cell growth, NCI panel, 48 h

Row | SMILES | TGI [µM]
49 | O=C(Nc1ccccc1)OCCN=C1c2ccccc2CCc2ccccc21 | 42.2
50 | COc1cc2cc(C(=O)N3CC(CCl)c4ccc([N+](C)(C)Cc5ccccc5[N+](=O)[O-])cc43)[nH]c2c(OC)c1OC (centres undefined) | > 100
51 | CC(C)[C@H]1NC(=O)[C@H]2N=C(S[C@H]2C)[C@@H]2CCCN2C(=O)[C@H](Cc2ccccc2)NC(=O)[C@@H]2CSC(=N2)[C@@H](Cc2ccccc2)NC(=O)[C@@H]2CSC1=N2 | 16.3
52 | O=C1Oc2ccccc2C(=O)/C1=C/N1C(=O)CNC1=S | > 100
53 | CC1=NN(c2nc(N)nc(/C(C#N)=C\c3ccc(-c4ccc([N+](=O)[O-])cc4)o3)n2)C(C)(C)C1 | 94.7
54 | COc1ccc2nc3ccc(OC)cc3c(SCCCl)c2c1 | > 21.1
55 | CC(Oc1ccccc1Cl)C(=O)NN1C(=O)CC(=O)N(c2ccc(Cl)cc2)C1=S (centres undefined) | 8.68
56 | CC(C)[Si]1(C(C)C)OCC2OC(n3ccc(=O)[nH]c3=O)C([Se]c3ccccc3)C2O[Si](C(C)C)(C(C)C)O1 (centres undefined) | > 25.4
57 | O=C1NCN(c2ccccc2)C12CCN(CC1COc3ccccc3O1)CC2 (centres undefined) | > 100
58 | O=C1OC([C@H](O)c2cccnc2)c2ccccc21 (some centres undefined) | > 10
59 | CC(C)(C)OC(=O)N1CCCC1C(=O)NC(c1ccccc1)c1ccccc1 (centres undefined) | > 100
60 | O=C1Cc2cn[nH]c2-c2ccccc2N1 | > 78.3
61 | O=CNc1ccccc1OCCOc1ccccc1NC=O | > 100
62 | C=CCN1CCC(c2cc(C(=O)OCC)[nH]c2-c2cc(C)no2)C1=O (centres undefined) | > 100
63 | O=c1[nH][nH]c(=O)c2c1ccc1oc3ccccc3c12 | > 100
64 | O=C1CSC(c2ccccc2O)N1c1ccc(-n2c(-c3ccccc3)nc3ccccc3c2=O)cc1 (centres undefined) | > 100
65 | Cc1ccc(C(=O)Oc2ccccc2)cc1N=NN(C)C | > 100
66 | O=C1NC2(CCNCC2)Oc2ccccc21 | > 100
67 | Cc1c(/C=N/NC(=S)N2CCCCC2)c(=O)n(-c2ccccc2)n1C | 95
68 | CC(C)(C)OC(=O)CCCCCNC(=O)CCCCCNC(=O)CCC(CN(CC(=O)OCc1ccccc1)CC(=O)OCc1ccccc1)N(CC(=O)OCc1ccccc1)CC(=O)OCc1ccccc1 (centres undefined) | > 100
69 | O=[N+]([O-])/C(Cl)=C(/C(Cl)=C(Cl)Cl)N1CCOCC1 | 5.23
70 | CN=c1sc2nc(C#N)c(C#N)nc2n1C | > 40.4
71 | CC(C)OP(=O)(OC(C)C)C(C)(C)O | > 100
72 | COC(=O)C(=O)Nc1cc2c3c(c1)Oc1cccc4c1C3(C)c1c(cccc1O2)O4 | 14.2

System: IGROV1 ovarian
Assay: inhibition of tumour cell growth, NCI panel, 48 h

Row | SMILES | TGI [µM]
73 | O=C(Nc1ccccc1)OCCN=C1c2ccccc2CCc2ccccc21 | 58.2
74 | COc1cc2cc(C(=O)N3CC(CCl)c4ccc([N+](C)(C)Cc5ccccc5[N+](=O)[O-])cc43)[nH]c2c(OC)c1OC (centres undefined) | 17.7
75 | CC(C)[C@H]1NC(=O)[C@H]2N=C(S[C@H]2C)[C@@H]2CCCN2C(=O)[C@H](Cc2ccccc2)NC(=O)[C@@H]2CSC(=N2)[C@@H](Cc2ccccc2)NC(=O)[C@@H]2CSC1=N2 | > 50
76 | O=C1Oc2ccccc2C(=O)/C1=C/N1C(=O)CNC1=S | > 100
77 | CC1=NN(c2nc(N)nc(/C(C#N)=C\c3ccc(-c4ccc([N+](=O)[O-])cc4)o3)n2)C(C)(C)C1 | > 100
78 | COc1ccc2nc3ccc(OC)cc3c(SCCCl)c2c1 | > 100
79 | CC(Oc1ccccc1Cl)C(=O)NN1C(=O)CC(=O)N(c2ccc(Cl)cc2)C1=S (centres undefined) | > 100
80 | CC(C)[Si]1(C(C)C)OCC2OC(n3ccc(=O)[nH]c3=O)C([Se]c3ccccc3)C2O[Si](C(C)C)(C(C)C)O1 (centres undefined) | 9.49
81 | O=C1NCN(c2ccccc2)C12CCN(CC1COc3ccccc3O1)CC2 (centres undefined) | > 100
82 | O=C1OC([C@H](O)c2cccnc2)c2ccccc21 (some centres undefined) | > 10
83 | CC(C)(C)OC(=O)N1CCCC1C(=O)NC(c1ccccc1)c1ccccc1 (centres undefined) | > 100
84 | O=C1Cc2cn[nH]c2-c2ccccc2N1 | > 100
85 | O=CNc1ccccc1OCCOc1ccccc1NC=O | > 100
86 | C=CCN1CCC(c2cc(C(=O)OCC)[nH]c2-c2cc(C)no2)C1=O (centres undefined) | > 100
87 | O=c1[nH][nH]c(=O)c2c1ccc1oc3ccccc3c12 | > 100
88 | O=C1CSC(c2ccccc2O)N1c1ccc(-n2c(-c3ccccc3)nc3ccccc3c2=O)cc1 (centres undefined) | 93.9
89 | Cc1ccc(C(=O)Oc2ccccc2)cc1N=NN(C)C | > 100
90 | O=C1NC2(CCNCC2)Oc2ccccc21 | > 100
91 | Cc1c(/C=N/NC(=S)N2CCCCC2)c(=O)n(-c2ccccc2)n1C | > 100
92 | CC(C)(C)OC(=O)CCCCCNC(=O)CCCCCNC(=O)CCC(CN(CC(=O)OCc1ccccc1)CC(=O)OCc1ccccc1)N(CC(=O)OCc1ccccc1)CC(=O)OCc1ccccc1 (centres undefined) | > 100
93 | O=[N+]([O-])/C(Cl)=C(/C(Cl)=C(Cl)Cl)N1CCOCC1 | 3.88
94 | CN=c1sc2nc(C#N)c(C#N)nc2n1C | 53.4
95 | CC(C)OP(=O)(OC(C)C)C(C)(C)O | > 100
96 | COC(=O)C(=O)Nc1cc2c3c(c1)Oc1cccc4c1C3(C)c1c(cccc1O2)O4 | > 100

System: NCI-H23 lung
Assay: inhibition of tumour cell growth, NCI panel, 48 h

Row | SMILES | TGI [µM]
97 | O=C(Nc1ccccc1)OCCN=C1c2ccccc2CCc2ccccc21 | > 100
98 | COc1cc2cc(C(=O)N3CC(CCl)c4ccc([N+](C)(C)Cc5ccccc5[N+](=O)[O-])cc43)[nH]c2c(OC)c1OC (centres undefined) | 4.9
99 | CC(C)[C@H]1NC(=O)[C@H]2N=C(S[C@H]2C)[C@@H]2CCCN2C(=O)[C@H](Cc2ccccc2)NC(=O)[C@@H]2CSC(=N2)[C@@H](Cc2ccccc2)NC(=O)[C@@H]2CSC1=N2 | > 50
100 | O=C1Oc2ccccc2C(=O)/C1=C/N1C(=O)CNC1=S | > 100
101 | CC1=NN(c2nc(N)nc(/C(C#N)=C\c3ccc(-c4ccc([N+](=O)[O-])cc4)o3)n2)C(C)(C)C1 | > 100
102 | COc1ccc2nc3ccc(OC)cc3c(SCCCl)c2c1 | > 100
103 | CC(Oc1ccccc1Cl)C(=O)NN1C(=O)CC(=O)N(c2ccc(Cl)cc2)C1=S (centres undefined) | > 100
104 | CC(C)[Si]1(C(C)C)OCC2OC(n3ccc(=O)[nH]c3=O)C([Se]c3ccccc3)C2O[Si](C(C)C)(C(C)C)O1 (centres undefined) | 13
105 | O=C1NCN(c2ccccc2)C12CCN(CC1COc3ccccc3O1)CC2 (centres undefined) | > 100
106 | O=C1OC([C@H](O)c2cccnc2)c2ccccc21 (some centres undefined) | > 10
107 | CC(C)(C)OC(=O)N1CCCC1C(=O)NC(c1ccccc1)c1ccccc1 (centres undefined) | > 100
108 | O=C1Cc2cn[nH]c2-c2ccccc2N1 | > 100
109 | O=CNc1ccccc1OCCOc1ccccc1NC=O | > 100
110 | C=CCN1CCC(c2cc(C(=O)OCC)[nH]c2-c2cc(C)no2)C1=O (centres undefined) | > 100
111 | O=c1[nH][nH]c(=O)c2c1ccc1oc3ccccc3c12 | > 100
112 | O=C1CSC(c2ccccc2O)N1c1ccc(-n2c(-c3ccccc3)nc3ccccc3c2=O)cc1 (centres undefined) | > 100
113 | Cc1ccc(C(=O)Oc2ccccc2)cc1N=NN(C)C | > 100
114 | O=C1NC2(CCNCC2)Oc2ccccc21 | > 100
